Measured values reported in publication PMC11676896, “Protective Action of Cannabidiol on Tiamulin Toxicity in Humans—In Vitro Study” (International Journal of Molecular Sciences, 2024).
Structures can show the parent of a compound that is named as a salt.

What was measured:
HEK 293 cells = experiment: LDH leakage assay (cell membrane integrity); format: cell-based, human
Experimental: (§1) The cytotoxic potential of the veterinary drug and its mixtures with cannabidiol at two non-toxic concentrations: 1.56 and 3.15 µg/mL, on the human SH-SY5Y, HepG2 and HEK 293 cell lines was assessed by decreased viability of the cells within five biochemical endpoints: mitochondrial activity and lysosomal activity (MTT assays, reducing the tetrazolium dye MTT 3-(4,5-dimethylthiazol-2-yl)-2,5-diphenyltetrazolium bromide and neutral red uptake (NRU) assays), total protein content (TPC assay), cellular membrane integrity (leakage lactate dehydrogenase (LDH) assay) and DNA synthesis (the bromodeoxyuridine/5-bromo-2′-deoxyuridine incorporation into the DNA cells (BrdU) assay) after 72 h exposition. Data obtained from the measurement of the optical density in these assays were transformed to percentages in relation to the negative control group (0.1% DMSO in medium), considered to be 100% for the MTT, NRU, TPC and BrdU assays and 0% for the LDH assay. 1% Trition-X 100 solution in medium was used as the positive controls, (Figure 3).
(§2) The human neuroblastoma (SH-SY5H), hepatoma (HepG2) and kidney cells (HEK 293) cells were purchased from the American Type Culture Collection: ATCCCRL-2266,ATCC HB-8065 and ATCC CRL-1573, respectively. These cells were cultured in Minimum Essential Medium Eagle (MEME) (ATCC). The media were supplemented with 10% FBS, 1% L-glutamine (and 1% antibiotic solution (P4333 Sigma). The cells were maintained in 75 cm^2 cell culture flasks (NUNC) in a humidified incubator at 37 °C in an atmosphere of 5% CO2. The medium was refreshed every two or three days, and the cells were subcultured by 0.25% trypsin–0.02% EDTA after reaching 70–80% confluence. Single cell suspensions were prepared and adjusted to a density of 2 × 10^5 cell/mL^−1 (SH-SY5H), 1 × 10^5 cell/mL^−1 (HepG2) and 1 × 10^5 cell/mL^−1 (HEK-293). The cell suspension was transferred to 96-well plates (100 µL/well) or Lab-Tek chamber slides (8 wells) (Nunc) for staining and incubated for 24 h before the exposure to the studied compounds. Stock solutions of tiamulin fumarate and cannabidiol were prepared in DMSO and diluted with culture medium to obtain a concentration range from 1.56 to 200 µg/mL and 1.56 or 3.156 µg/mL, respectively. The selection of tiamulin concentrations was based on data from the literature and pilot studies. The final concentration of DMSO was 0.1% in the medium. The same final concentrations of the solvent and the 1% Trition-X 100 solution were used as the negative and positive controls, respectively. A total of 500 µM hydrogen peroxide (H2O2) in was used as the positive control in the DCFH assay. […] As a negative control, cultured cells were grown in the absence of studied compounds. Each concentration was tested in six replicates in three independent experiments. Cytotoxicity was assessed after 72 h of exposure of the cells to the compounds. The medium was not changed during the incubation time.
(§3) The integrity of the plasma membrane was assessed through the test of lactate dehydrogenase (LDH) release, which was monitored using the commercially available Cytotoxicity Detection Kit (LDH) (Roche Diagnostics, Warsaw, Poland). The medium (100 µL/well) without cells was transferred into the corresponding wells of an optically clear 96-well flat bottom microplate, and 100 µL reaction mixture was added to each well. Then, the plates were incubated for 30 min at room temperature in darkness. After that time, 50 µL/well of 1 M HCl was added to stop the reaction. The absorbance was measured at 492 nm in a Synergy 2 Multi-Mode Microplate Reader (BiTek® Instruments Inc., Winooski, VT, USA) using a blank as a reference.
(§4) This study was performed in three independent experiments. The obtained results are presented as mean values ± SD (standard deviation). […]

HepG2 cells [1] = experiment: LDH leakage assay (cell membrane integrity); format: cell-based, human; details: HepG2, 72 h
Experimental: as §1, §2, §3, §4

SH-SY5Y cells [2] = experiment: LDH leakage assay (cell membrane integrity); format: cell-based, human; details: 72 h
Experimental: as §1, §2, §3, §4

HEK-293 cells [3] = experiment: Hoechst 33342/propidium iodide double staining (apoptosis and necrosis); format: cell-based; details: HEK-293, 72 h of incubation
Description: (§5) After assessing the cytotoxicity of tiamulin and its mixtures with CBD, cell death was examined using the Hoechst 33342/propidium iodide (PI) double staining test (Figure 6). The intensity of the blue color and the presence of fragmented, blue-stained cellular components indicated apoptotic cell death after Hoechst 33342 staining. Necrotic cell death was identified by red fluorescence after PI staining. […] Mixtures of tiamulin and CBD caused a decrease in both apoptotic and necrotic cell death.
(§6) The analysis of type and level of cellular death in the control and tested cultures was evaluated using fluorochrome staining, Hoechst 33342 (Sigma, St. Louis, MO, USA) and propidium iodide (Sigma, St. Louis, MO, USA) mixed for apoptosis and necrosis evaluation. Using an Axiaert 200 M fluorescence micrscope (Zeiss, Obercochem, Germany), dead cells were analyzed morphologically. Cells with pink fluorescent nuclei were considered necrotic, whereas those with blue fluorescent nuclei (fragmented and/or with condensed chromatin) were considered apoptotic.

HepG2 cells [4] = experiment: as above; format: cell-based; details: HepG2, 72 h of incubation
Description: as §5, §6

SH-SY5Y cells [5] = experiment: as above; format: cell-based; details: 72 h of incubation
Description: as §5, §6

HEK-293 cells [6] = experiment: Cytotoxicity over the five assays (MTT, NRU, TPC, LDH, BrdU); format: cell-based; details: Homo sapiens, HEK293, 72 h, read-out: IC50 values, range over the five assays
Experimental: as §1
(§7) The human neuroblastoma (SH-SY5H), hepatoma (HepG2) and kidney cells (HEK 293) cells were purchased from the American Type Culture Collection: ATCCCRL-2266,ATCC HB-8065 and ATCC CRL-1573, respectively. These cells were cultured in Minimum Essential Medium Eagle (MEME) (ATCC). […] Cytotoxicity was assessed after 72 h of exposure of the cells to the compounds. […]

HepG2 cells [7] = experiment: as above; format: cell-based; details: Homo sapiens, HepG2, 72 h, read-out: IC50 values, range over the five assays
Experimental: as §1, §7

CYP3A4 = tested on: CYP3A4; parameters: method as in PMID 15013817; details: cited from earlier work
[8] = Homo sapiens, read-out: inhibited concentration (IC50), LDH

C=C[C@]1(C)C[C@@H](OC(=O)CSCCN(CC)CC)[C@]2(C)[C@H](C)CC[C@]3(CCC(=O)[C@H]32)[C@@H](C)[C@@H]1O [T, tiamulin fumarate]
tiamulin concentration that caused disintegration of the cell membrane (HEK 293 cells; HEK-293, 72 h): 25 µg/mL
IC50 (HEK 293 cells; Homo sapiens, HEK293, 72 h, read-out: inhibited concentration (IC50), LDH): 76.9 ± 2.3 µg/mL
tiamulin concentration that caused disintegration of the cell membrane (HepG2 cells [1]): 25 µg/mL
IC50 (HepG2 cells [1]; [8]): 39.5 ± 1.7 µg/mL
tiamulin concentration that caused disintegration of the cell membrane (SH-SY5Y cells [2]): 25 µg/mL
IC50 (SH-SY5Y cells [2]; [8]): > 200 µg/mL
apoptotic and necrotic cell death (HEK-293 cells [3]): significant apoptotic and necrotic profiles
apoptotic and necrotic cell death (HepG2 cells [4]): significant apoptotic and necrotic profiles
apoptotic and necrotic cell death (SH-SY5Y cells [5]): slight increase in apoptotic and necrotic cells
IC50 (HEK-293 cells [6]): 8.5 to 76.9 µg/mL
IC50 (HepG2 cells [7]): 13.9 to 39.5 µg/mL
effect on CYP3A4 (CYP3A4): strongly blocks CYP3A4
